According to article PMC10925993, “6-Aryl-4-cycloamino-1,3,5-triazine-2-amines: synthesis, antileukemic activity, and 3D-QSAR modelling” (RSC Advances, 2024):
Read-outs that look alike come from different tables or passages of the source.

How the values were obtained:
Jurkat T cells = assay: Antiproliferative screening at 10 μM, MTS assay; type: cell-based, human; details: Homo sapiens, read-out: Cell viability (%)
Procedure: The Jurkat T cell line was chosen for its reliability as a model for chemotherapeutic studies, particularly in T-cell leukemia.[13]
An MTS (3-(4,5-dimethylthiazol-2-yl)-5-(3-carboxymethoxyphenyl)-2-(4-sulfophenyl)-2H-tetrazolium inner salt) assay[20] was used to assess the leukemic cell viability. […] A total of 2 × 10^3 cells per 100 μL cell culture media were seeded into each well of a 96-well plate and incubated for 24 h. Then, tested compounds or reference drugs [6-mercaptopurine (Merck Millipore, Germany), methotrexate (Merck Millipore, Germany) and cytarabine (Merck Millipore, Germany)] were added, followed by incubation for 72 h. […] The absorbance in each well was measured at 490 nm using a microplate reader (Tecan NanoQuant Infinite M200 Pro, Austria). The percentage of cell viability was estimated by comparing absorbance in wells with the treated and untreated (vehicle control) cells using the following formula: ODtreated/ODuntreated × 100%. All experiments were performed in triplicate and repeated in three independent experiments. The GI50 values were calculated using sigmoidal concentration-response curves generated by the GraphPad Prism 8 program.[21]

[1] = Jurkat T cells, 10 μM, 72 h after treatment, MTS, mean of three independent experiments

melting point | Structure (SMILES) | viability at 10 µM (Jurkat T cells; [1]) | viability at 10 µM (Jurkat T cells; Jurkat, 72 h)
182 to 183 °C | Nc1nc(-c2cccc(F)c2)nc(N2CCCC2)n1 [9{1,2}, 6-(3-Fluorophenyl)-4-pyrrolidino-1,3,5-triazine-2-amine] | 100% | 
202 to 203 °C | Nc1nc(-c2ccc(F)cc2)nc(N2CCCC2)n1 [9{1,3}, 6-(4-Fluorophenyl)-4-pyrrolidino-1,3,5-triazine-2-amine] | 97% | 
185 to 186 °C | Cc1cccc(-c2nc(N)nc(N3CCCC3)n2)c1 [9{1,5}, 6-(3-Methylphenyl)-4-pyrrolidino-1,3,5-triazine-2-amine] | 82% | 
229 to 230 °C | Cc1ccc(-c2nc(N)nc(N3CCCC3)n2)cc1 [9{1,6}, 6-(4-Methylphenyl)-4-pyrrolidino-1,3,5-triazine-2-amine] | 100% | 
196 to 197 °C | CC(C)(C)c1ccc(-c2nc(N)nc(N3CCCC3)n2)cc1 [9{1,7}, 6-[4-(tert-Butyl)phenyl]-4-pyrrolidino-1,3,5-triazine-2-amine] | 88% | 
208 to 209 °C | COc1ccc(-c2nc(N)nc(N3CCCC3)n2)cc1 [9{1,9}, 6-(4-Methoxyphenyl)-4-pyrrolidino-1,3,5-triazine-2-amine] | 100% | 
207 to 208 °C | Nc1nc(-c2cccc([N+](=O)[O-])c2)nc(N2CCCC2)n1 [9{1,10}, 6-(3-Nitrophenyl)-4-pyrrolidino-1,3,5-triazine-2-amine] | 94% | 
186 to 187 °C | Nc1nc(-c2ccc(C(F)(F)F)cc2)nc(N2CCCC2)n1 [9{1,11}, 6-[4-(Trifluoromethyl)phenyl]-4-pyrrolidino-1,3,5-triazine-2-amine] | 78% | 
149 to 150 °C | Nc1nc(-c2ccc(OC(F)(F)F)cc2)nc(N2CCCC2)n1 [9{1,12}, 6-[4-(Trifluoromethoxy)phenyl]-4-pyrrolidino-1,3,5-triazine-2-amine] | 96% | 
170 to 171 °C | Nc1nc(-c2cccc(Oc3ccccc3)c2)nc(N2CCCC2)n1 [9{1,13}, 6-(3-Phenoxyphenyl)-4-pyrrolidino-1,3,5-triazine-2-amine] | 87% | 
201 to 202 °C | Nc1nc(-c2ccc(OCc3ccccc3)cc2)nc(N2CCCC2)n1 [9{1,15}, 6-[4-(Benzyloxy)phenyl]-4-pyrrolidino-1,3,5-triazine-2-amine] | 94% | 
217 to 218 °C | COc1ccc(-c2nc(N)nc(N3CCCC3)n2)cc1OC [9{1,16}, 6-(3,4-Dimethoxyphenyl)-4-pyrrolidino-1,3,5-triazine-2-amine] | 95% | 
213 to 214 °C | COc1cc(-c2nc(N)nc(N3CCCC3)n2)cc(OC)c1OC [9{1,17}, 6-(3,4,5-Trimethoxyphenyl)-4-pyrrolidino-1,3,5-triazine-2-amine] | 98% | 
210 to 211 °C | Nc1nc(-c2cccs2)nc(N2CCCC2)n1 [9{1,18}, 4-Pyrrolidino-6-(2-thienyl)-1,3,5-triazine-2-amine] | 100% | 
138 to 139 °C | Nc1nc(-c2cccc(F)c2)nc(N2CCCCC2)n1 [9{2,2}, 6-(3-Fluorophenyl)-4-piperidino-1,3,5-triazine-2-amine] | 62% | 
156 to 157 °C | Nc1nc(-c2ccc(F)cc2)nc(N2CCCCC2)n1 [9{2,3}, 6-(4-Fluorophenyl)-4-piperidino-1,3,5-triazine-2-amine] | 98% | 
177 to 178 °C | Nc1nc(-c2ccc(Cl)cc2)nc(N2CCCCC2)n1 [9{2,4}, 6-(4-Chlorophenyl)-4-piperidino-1,3,5-triazine-2-amine] | 83% | 
178 to 179 °C | COc1ccc(-c2nc(N)nc(N3CCCCC3)n2)cc1 [9{2,9}, 6-(4-Methoxyphenyl)-4-piperidino-1,3,5-triazine-2-amine] | 100% | 
158 to 159 °C | Nc1nc(-c2cccc([N+](=O)[O-])c2)nc(N2CCCCC2)n1 [9{2,10}, 6-(3-Nitrophenyl)-4-piperidino-1,3,5-triazine-2-amine] | 100% | 
125 to 126 °C | CC1CCN(c2nc(N)nc(-c3cccc(F)c3)n2)CC1 [9{3,2}, 6-(3-Fluorophenyl)-4-(4-methylpiperidino)-1,3,5-triazine-2-amine] | 61% | 
> 300 °C | CC1CCN(c2nc(N)nc(-c3ccc(F)cc3)n2)CC1 [9{3,3}, 6-(4-Fluorophenyl)-4-(4-methylpiperidino)-1,3,5-triazine-2-amine] | 86% | 
168 to 169 °C | CC1CCN(c2nc(N)nc(-c3ccc(Cl)cc3)n2)CC1 [9{3,4}, 6-(4-Chlorophenyl)-4-(4-methylpiperidino)-1,3,5-triazine-2-amine] | 79% | 
> 300 °C | Cc1ccc(-c2nc(N)nc(N3CCC(C)CC3)n2)cc1 [9{3,6}, 6-(4-Methylphenyl)-4-(4-methylpiperidino)-1,3,5-triazine-2-amine] | 100% | 
212 to 213 °C | CC1CCN(c2nc(N)nc(-c3ccc(N(C)C)cc3)n2)CC1 [9{3,8}, 6-[4-(N,N-Dimethylamino)phenyl]-4-(4-methylpiperidino)-1,3,5-triazine-2-amine] | 84% | 
172 to 173 °C | COc1ccc(-c2nc(N)nc(N3CCC(C)CC3)n2)cc1 [9{3,9}, 6-(4-Methoxyphenyl)-4-(4-methylpiperidino)-1,3,5-triazine-2-amine] | 100% | 
153 to 154 °C | CC1CCN(c2nc(N)nc(-c3cccc([N+](=O)[O-])c3)n2)CC1 [9{3,10}, 4-(4-Methylpiperidino)-6-(3-nitrophenyl)-1,3,5-triazine-2-amine] | 84% | 
187 to 188 °C | CN1CCN(c2nc(N)nc(-c3cccc(F)c3)n2)CC1 [9{4,2}, 6-(3-Fluorophenyl)-4-(4-methylpiperazino)-1,3,5-triazine-2-amine] | 95% | 
192 to 193 °C | CN1CCN(c2nc(N)nc(-c3ccc(F)cc3)n2)CC1 [9{4,3}, 6-(4-Fluorophenyl)-4-(4-methylpiperazino)-1,3,5-triazine-2-amine] | 100% | 
194 to 195 °C | Cc1cccc(-c2nc(N)nc(N3CCN(C)CC3)n2)c1 [9{4,5}, 6-(3-Methylphenyl)-4-(4-methylpiperazino)-1,3,5-triazine-2-amine] | 95% | 

The next lines start with the molecule.

Structure (SMILES) | melting point | viability at 10 µM (Jurkat T cells; [1]) | viability at 10 µM (Jurkat T cells; Jurkat, 72 h)
Nc1nc(-c2ccccc2)nc(N2CCCC2)n1 [9{1,1}] |  | 100% | 
Nc1nc(-c2ccccc2)nc(N2CCCCC2)n1 [9{2,1}] |  | 100% | 
Cc1ccc(-c2nc(N)nc(N3CCCCC3)n2)cc1 [9{2,6}, 6-(4-Methylphenyl)-4-piperidino-1,3,5-triazine-2-amine] |  | 100% | 
CC1CCN(c2nc(N)nc(-c3ccccc3)n2)CC1 [9{3,1}] |  | 100% | 
COc1cc(-c2nc(N)nc(N3CCC(C)CC3)n2)cc(OC)c1OC [9{3,17}, 6-(3,4,5-Trimethoxyphenyl)-4-(4-methylpiperidino)-1,3,5-triazine-2-amine] |  | 95% | 
CN1CCN(c2nc(N)nc(-c3ccccc3)n2)CC1 [9{4,1}] |  | 100% | 
CN1CCN(c2nc(N)nc(-c3ccc(Cl)cc3)n2)CC1 [9{4,4}, 6-(4-Chlorophenyl)-4-(4-methylpiperazino)-1,3,5-triazine-2-amine] |  |  | 100%
Nc1nc(-c2ccccc2)nc(N2CCOCC2)n1 [9{5,1}] |  | 98% | 
Nc1nc(-c2cccc(F)c2)nc(N2CCOCC2)n1 [9{5,2}] |  | 100% | 
Nc1nc(-c2ccc(F)cc2)nc(N2CCOCC2)n1 [9{5,3}] |  | 100% | 
Nc1nc(-c2ccc(Cl)cc2)nc(N2CCOCC2)n1 [9{5,4}] |  | 100% | 
Cc1cccc(-c2nc(N)nc(N3CCOCC3)n2)c1 [9{5,5}] |  | 100% | 
Cc1ccc(-c2nc(N)nc(N3CCOCC3)n2)cc1 [9{5,6}] |  | 100% | 
CC(C)(C)c1ccc(-c2nc(N)nc(N3CCOCC3)n2)cc1 [9{5,7}] |  | 60% | 
CN(C)c1ccc(-c2nc(N)nc(N3CCOCC3)n2)cc1 [9{5,8}] |  | 100% | 
COc1ccc(-c2nc(N)nc(N3CCOCC3)n2)cc1 [9{5,9}] |  | 100% | 
Nc1nc(-c2ccc(OC(F)(F)F)cc2)nc(N2CCOCC2)n1 [9{5,12}] |  | 100% | 
Nc1nc(-c2cccc(Oc3ccccc3)c2)nc(N2CCOCC2)n1 [9{5,13}] |  | 78% | 
Nc1nc(-c2cccc(OCc3ccccc3)c2)nc(N2CCOCC2)n1 [9{5,14}] |  | 63% | 
Nc1nc(-c2ccc(OCc3ccccc3)cc2)nc(N2CCOCC2)n1 [9{5,15}] |  | 94% | 
COc1ccc(-c2nc(N)nc(N3CCOCC3)n2)cc1OC [9{5,16}] |  | 100% | 
COc1cc(-c2nc(N)nc(N3CCOCC3)n2)cc(OC)c1OC [9{5,17}] |  | 100% | 
Nc1nc(-c2cccs2)nc(N2CCOCC2)n1 [9{5,18}] |  | 77% | 
